From paper PMC12499452, “The Multitarget Compound ZLY032 Achieves Treatment of Chronic Wounds” (Advanced Science, 2025)

Legend:
[1] = molecular target: T1, PPARδ (Homo sapiens, UniProt Q03181); assay: cellular thermal shift assay (CETSA), Western blot; type: cell-based; settings: HEK293T cells
T1 construct: gene PPARD; apparently endogenous in HEK293T cells (no transfection told); Western blot read-out
T1 sequence (Q03181 1-441): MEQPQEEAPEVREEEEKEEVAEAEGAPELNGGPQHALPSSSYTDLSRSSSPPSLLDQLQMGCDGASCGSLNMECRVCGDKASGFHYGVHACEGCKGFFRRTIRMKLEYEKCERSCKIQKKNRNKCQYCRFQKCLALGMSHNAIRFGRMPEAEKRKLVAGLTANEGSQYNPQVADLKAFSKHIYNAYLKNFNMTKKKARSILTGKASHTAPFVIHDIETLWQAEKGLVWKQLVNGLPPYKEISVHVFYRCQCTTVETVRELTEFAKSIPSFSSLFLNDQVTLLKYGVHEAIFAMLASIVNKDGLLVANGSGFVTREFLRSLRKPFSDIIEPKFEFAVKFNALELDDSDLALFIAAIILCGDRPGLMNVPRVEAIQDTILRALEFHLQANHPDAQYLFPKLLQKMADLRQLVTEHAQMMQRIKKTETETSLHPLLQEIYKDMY

[2] = molecular target: T2, FFA1 (Homo sapiens, UniProt O14842); assay: cellular thermal shift assay (CETSA), Western blot; type: cell-based; settings: HEK293T cells
T2 construct: gene FFAR1; apparently endogenous in HEK293T cells (no transfection told); Western blot read-out

[3] = molecular target: T3, ASAL (from S. aureus) (Staphylococcus aureus, UniProt Q2FIB5); assay: surface plasmon resonance (Biacore T200, CM5 chip, immobilised protein); type: binding; settings: read-out: affinity constant
T3 construct: gene argH; immobilised on CM5 chip
T3 sequence (Q2FIB5 1-459): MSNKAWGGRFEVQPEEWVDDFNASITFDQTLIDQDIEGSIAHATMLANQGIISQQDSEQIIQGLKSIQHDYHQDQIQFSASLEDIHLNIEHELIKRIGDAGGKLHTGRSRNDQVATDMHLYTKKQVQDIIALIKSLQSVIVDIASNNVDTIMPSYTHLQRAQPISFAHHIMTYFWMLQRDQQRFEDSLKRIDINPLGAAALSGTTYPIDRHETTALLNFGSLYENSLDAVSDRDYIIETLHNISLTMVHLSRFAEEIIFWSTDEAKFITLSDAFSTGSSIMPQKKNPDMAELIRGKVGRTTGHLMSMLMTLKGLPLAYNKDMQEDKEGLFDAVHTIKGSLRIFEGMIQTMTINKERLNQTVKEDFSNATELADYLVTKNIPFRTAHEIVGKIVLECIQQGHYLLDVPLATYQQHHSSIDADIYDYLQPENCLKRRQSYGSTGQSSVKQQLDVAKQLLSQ

T2 sequence (O14842 whole entry): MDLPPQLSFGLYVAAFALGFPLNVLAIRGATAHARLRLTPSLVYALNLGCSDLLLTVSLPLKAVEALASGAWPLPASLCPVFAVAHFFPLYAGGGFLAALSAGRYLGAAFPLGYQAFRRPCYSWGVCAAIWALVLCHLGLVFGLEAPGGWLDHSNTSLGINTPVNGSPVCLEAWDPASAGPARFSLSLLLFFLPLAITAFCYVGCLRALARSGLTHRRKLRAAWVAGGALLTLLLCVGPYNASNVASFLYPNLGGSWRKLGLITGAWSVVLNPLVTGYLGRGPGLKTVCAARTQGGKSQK

Cc1nc(-c2ccc(C(F)(F)F)cc2)sc1COc1ccc2c(c1)OC[C@H]2CC(=O)O [ZLY032]
cellular thermal shift assay (CETSA), Western blot [1]: ZLY032 had direct binding ability with FFA1 and PPARδ (Figure S11, Supporting Information)
cellular thermal shift assay (CETSA), Western blot [2]: ZLY032 had direct binding ability with FFA1 and PPARδ (Figure S11, Supporting Information)
Kd [3]: 10.9 µM
